# Data published in patent EP4763839A1 (Pamplona Therapeutics (Shenzhen) Co., Ltd., priority 2023, dated 2025).
# Target: T1, IRAK4 (Homo sapiens, UniProt Q9NWZ3)
# T1 sequence (Q9NWZ3 1-460): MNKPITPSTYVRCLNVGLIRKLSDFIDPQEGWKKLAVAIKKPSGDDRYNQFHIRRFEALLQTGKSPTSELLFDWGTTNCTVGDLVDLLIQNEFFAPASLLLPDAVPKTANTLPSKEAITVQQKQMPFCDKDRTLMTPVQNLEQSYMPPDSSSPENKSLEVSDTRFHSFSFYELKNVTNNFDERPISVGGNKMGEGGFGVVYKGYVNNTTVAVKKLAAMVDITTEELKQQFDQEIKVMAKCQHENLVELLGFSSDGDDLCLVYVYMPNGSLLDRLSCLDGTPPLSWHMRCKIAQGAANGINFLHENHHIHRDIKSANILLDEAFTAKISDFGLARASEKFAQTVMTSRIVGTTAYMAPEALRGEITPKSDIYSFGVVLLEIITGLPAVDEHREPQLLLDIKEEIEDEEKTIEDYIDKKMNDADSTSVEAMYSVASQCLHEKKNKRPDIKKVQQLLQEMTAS
# Test: Assay for inhibitory effect of compound on IRAK4 kinase activity (KinEASE-STK S1 HTRF kit)
# Format: biochemical
# Conditions: not given
# Procedure: Example 1: Kinase activity assay
# Assay for inhibitory effect of compound on IRAK4 kinase activity
# The inhibitory effect of the compound on IRAK4 kinase activity was measured using the KinEASE-STK S1 serine/threonine kinase kit (Cisbio). The specific method was as follows: the compound was dissolved in dimethyl sulfoxide and then subjected to 3-fold serial dilution in dimethyl sulfoxide, yielding final test compound concentrations in the reaction system ranging from 5,000 nM to 0.0254 nM. The kinase at a final concentration of 8 nM was added, followed by incubation at rt for 15 minutes. Subsequently, biotinylated STK1 substrate at a final concentration of 400 nM and adenosine triphosphate (ATP) at a final concentration of 80 µM were sequentially added, and the mixture was incubated at 37°C for 90 minutes. Then, the reaction was terminated by adding an anti-phosphoserine/threonine antibody conjugated with a europium cryptate and streptavidin-conjugated XL665 to the reaction system. After incubation at rt for 1 hour, the fluorescence intensity at emission wavelengths of 620 nm and 665 nm for each well was measured using an EnVision microplate reader (PerkinElmer) in HTRF mode. The ratio value was calculated using the formula: Ratio = (665 nm/620 nm)×10^4 The inhibition rate of the compound at each concentration was calculated using the formula: Inhibition% = [1-(Signal sample-Signal min)/(Signal max-Signal min)]×100. Subsequently, the dose-response curve was fitted by nonlinear curve fitting of log concentration versus inhibition rate using Fit Modela (205) in XLfit to give the IC50 value of the compound for inhibition of protein activity.
row,SMILES,IC50
1,"NS(=O)(=O)c1nn(C2CCC2)cc1NC(=O)c1ccn2ncc(-c3ccn[nH]3)c2n1 [Compound A278, N-(1-cyclobutyl-3-sulfonamide-1H-pyrazol-4-yl)-3-(1H-pyrazol-5-yl)pyrazolo[1,5-a]pyrimidine-5-carboxamide]",< 100 nM

# Same assay, conditions: kinase 8 nM, ATP 80 µM, 37°C 90 minutes; read-out: IRAK4 HTRF IC50
row,IC50,SMILES
1,< 100 nM,"COc1nn(-c2ccccc2)cc1NC(=O)c1cccc(C(=O)c2cn[nH]c2)n1 [Compound A262, N-(3-methoxy-1-phenyl-1H-pyrazol-4-yl)-6-(1H-pyrazole-4-carbonyl)picolinamide]"
2,< 100 nM,"CC(C)(O)c1nn(-c2ccccc2)cc1NC(=O)c1cccc(-c2ccn[nH]2)n1 [Compound A240, N-(3-(2-Hydroxypropan-2-yl)-1-phenyl-1H-pyrazol-4-yl)-6-(1H-pyrazol-5-yl)picolinamide]"
3,> 1000 nM,NC(=O)c1sc(-c2ccccc2)cc1NC(=O)c1cccc(C(F)(F)F)n1 [Compound A50]
4,100 to 1000 nM,NC(=O)c1nn(-c2ccc(N)cc2)cc1NC(=O)c1cccc(C(F)(F)F)n1 [Compound A9]
5,< 100 nM,"O=C(Nc1cn(-c2ccccc2)nc1C(=O)C(F)(F)F)c1cccc(-c2ccn[nH]2)n1 [Compound A243, N-(1-Phenyl-3-(2,2,2-trifluoroacetyl)-1H-pyrazol-4-yl)-6-(1H-pyrazol-5-yl)picolinamide]"
6,< 100 nM,CN1CCN(c2ccc(-n3cc(NC(=O)c4cccc(C(F)(F)F)n4)c(C(N)=O)n3)cc2)CC1 [Compound A26]
7,< 100 nM,N#Cc1cnn2c(C(=O)Nc3cn(-c4ccccc4)nc3C(N)=O)ccc2c1 [Compound A231]
8,< 100 nM,N#Cc1cnn2c(C(=O)Nc3cn(C4CCCCC4)nc3C(N)=O)ccc2c1 [Compound A235]
9,100 to 1000 nM,"CC(C)(O)c1nn(C2CCC2)cc1NC(=O)c1cnn2ccc(-c3ccn[nH]3)nc12 [Compound A290, N-(1-cyclobutyl-3-(2-hydroxypropan-2-yl)-1H-pyrazol-4-yl)-5-(1H-pyrazol-5-yl)pyrazolo[1,5-a]pyrimidine-3-carboxamide]"
10,100 to 1000 nM,"CC(C)NC(=O)c1nn(-c2ccccc2)cc1NC(=O)c1cccc(-c2ccn[nH]2)n1 [Compound A247, N-(3-(Isopropylcarbamoyl)-1-phenyl-1H-pyrazol-4-yl)-6-(1H-pyrazol-5-yl)picolinamide]"
11,100 to 1000 nM,"CC(C)NS(=O)(=O)c1nn(-c2ccccc2)cc1NC(=O)c1cccc(-c2ccn[nH]2)n1 [Compound A249, N-(3-(N-Isopropylsulfamoyl)-1-phenyl-1H-pyrazol-4-yl)-6-(1H-pyrazol-5-yl)picolinamide]"
12,> 1000 nM,"NS(=O)(=O)c1cn(-c2ccccc2)nc1NC(=O)c1cccc(C(F)(F)F)n1 [Compound A59, N-(1-phenyl-4-sulfamoyl-1H-pyrazol-3-yl)-6-(trifluoromethyl)picolinamide]"
13,< 100 nM,CC(=O)NCc1ccc(-n2cc(NC(=O)c3cccc(C(F)(F)F)n3)c(C(N)=O)n2)cc1 [Compound A23]
14,< 100 nM,"NS(=O)(=O)c1nn(-c2ccccc2)cc1NC(=O)c1cccc(-c2cc[nH]n2)n1 [Compound A92, N-(1-phenyl-3-sulfamoyl-1H-pyrazol-4-yl)-6-(1H-pyrazol-3-yl)picolinamide]"
15,100 to 1000 nM,NC(=O)c1nn(C2CCNCC2)cc1NC(=O)c1cccc(C(F)(F)F)n1 [Compound A3]
16,100 to 1000 nM,CC(F)(F)c1cccc(C(=O)Nc2cn(-c3ccccc3)nc2C(N)=O)n1 [Compound A264]
17,< 100 nM,CN(C)C(=O)c1ccc(-n2cc(NC(=O)c3cccc(C(F)(F)F)n3)c(C(N)=O)n2)cc1 [Compound A15]
18,100 to 1000 nM,"CC(C)(O)c1nn(C2CCC2)cc1NC(=O)c1ccn2ncc(-c3ccn[nH]3)c2n1 [Compound A281, N-(1-cyclobutyl-3-(2-hydroxypropan-2-yl)-1H-pyrazol-4-yl)-3-(1H-pyrazol-5-yl)pyrazolo[1,5-a]pyrimidine-5-carboxamide]"
19,< 100 nM,CNCc1ccc(-n2cc(NC(=O)c3cccc(C(F)(F)F)n3)c(C(N)=O)n2)cc1 [Compound A21]
20,100 to 1000 nM,"NS(=O)(=O)c1nn(-c2ccccc2)cc1NC(=O)c1cccc(C(F)(F)F)n1 [Compound A62, N-(1-phenyl-3-sulfamoyl-1H-pyrazol-4-yl)-6-(trifluoromethyl)picolinamide]"

row,IC50,SMILES
1,100 to 1000 nM,"N#Cc1cnn2c(C(=O)Nc3cn(C4CCCCC4)nc3C(F)F)ccc2c1 [Compound A266, 3-cyano-N-(1-cyclohexyl-3-(difluoromethyl)-1H-pyrazol-4-yl)pyrrolo[1,2-b]pyridazine-7-carboxamide]"
2,> 1000 nM,"N#Cc1nn(-c2ccccc2)cc1NC(=O)c1cccc(C(F)(F)F)n1 [Compound A64, N-(3-cyano-1-phenyl-1H-pyrazol-4-yl)-6-(trifluoromethyl)picolinamide]"
3,< 100 nM,"NS(=O)(=O)c1nn(C2CCC2)cc1NC(=O)c1cnn2ccc(-c3ccn[nH]3)nc12 [Compound A293, N-(1-cyclobutyl-3-sulfamoyl-1H-pyrazol-4-yl)-5-(1H-pyrazol-5-yl)pyrazolo[1,5-a]pyrimidine-3-carboxamide]"
4,< 100 nM,"CS(=N)(=O)c1nn(-c2ccccc2)cc1NC(=O)c1cccc(-c2cn[nH]c2)n1 (stereo not shown) [Compound A97, N-(3-(S-methylsulfonimidoyl)-1-phenyl-1H-pyrazol-4-yl)-6-(1H-pyrazol-4-yl)picolinamide]"
5,< 100 nM,"O=C(Nc1cn(C2CNC2)nc1C(=O)NC1CC1)c1cccc(-c2ccn[nH]2)n1 [Compound A253, N-(1-(Azetidin-3-yl)-3-(cyclopropylcarbamoyl)-1H-pyrazol-4-yl)-6-(1H-pyrazol-5-yl)picolinamide]"
6,< 100 nM,NC(=O)c1nn(-c2ccc(C(=O)N3CCNCC3)cc2)cc1NC(=O)c1cccc(C(F)(F)F)n1 [Compound A16]
7,> 1000 nM,NC(=O)c1nn(-c2cnc(Br)cn2)cc1NC(=O)c1cccc(C(F)(F)F)n1 [Compound A2]
8,< 100 nM,NC(=O)c1nn(-c2ccc(N3CCN(C(=O)c4ccccc4)CC3)cc2)cc1NC(=O)c1cccc(C(F)(F)F)n1 [Compound A28]
9,< 100 nM,"NS(=O)(=O)c1nn(-c2ccccc2)cc1NC(=O)c1cccc(-n2ccnc2)n1 [Compound A261, 6-(1H-Imidazol-1-yl)-N-(1-phenyl-3-sulfamoyl-1H-pyrazol-4-yl)picolinamide]"
10,> 1000 nM,"CC(C)n1cc(-c2ccccc2)nc1NC(=O)c1cccc(C(F)(F)F)n1 [Compound A107, N-(1-isopropyl-4-phenyl-1H-imidazol-2-yl)-6-(trifluoromethyl)picolinamide]"
11,> 1000 nM,"CNC1CC(c2nn(-c3ccccc3)cc2NC(=O)c2cccc(C(F)(F)F)n2)C1 (stereo not shown) [Compound A44, N-(3-(3-(Methylamino)cyclobutyl)-1-phenyl-1H-pyrazol-4-yl)-6-(trifluoromethyl)picolinamide]"
12,100 to 1000 nM,"O=C(NC1CC1)c1nn(C2CCC2)cc1NC(=O)c1cnn2ccc(-c3ccn[nH]3)nc12 [Compound A286, N-(1-cyclobutyl-3-(cyclopropylcarbamoyl)-1H-pyrazol-4-yl)-5-(1H-pyrazol-5-yl)pyrazolo[1,5-a]pyrimidine-3-carboxamide]"
13,> 1000 nM,"O=C(Nc1cn(-c2ccccc2)nc1C1CCN1)c1cccc(-c2ccn[nH]2)n1 (stereo not shown) [Compound A245, N-(3-(Azetidin-2-yl)-1-phenyl-1H-pyrazol-4-yl)-6-(1H-pyrazol-5-yl)picolinamide]"
14,< 100 nM,NC(=O)c1[nH]c(-c2ccccc2)cc1NC(=O)c1cccc(C(F)(F)F)n1 [Compound A48]
15,< 100 nM,CC(=O)Nc1ccc(-n2cc(NC(=O)c3cccc(C(F)(F)F)n3)c(C(N)=O)n2)cc1 [Compound A12]
16,< 100 nM,NC(=O)c1nn(-c2ccc(C(=O)N3CC(CNc4ccc5c(c4)C(=O)N(C4CCC(=O)NC4=O)C5=O)C3)cc2)cc1NC(=O)c1cccc(C(F)(F)F)n1 (stereo not shown) [Compound A110]
17,< 100 nM,CC(=O)N1CCN(c2ccc(-n3cc(NC(=O)c4cccc(C(F)(F)F)n4)c(C(N)=O)n3)cc2)CC1 [Compound A27]
18,100 to 1000 nM,"CS(=N)(=O)c1nn(-c2ccccc2)cc1NC(=O)c1cccc(-c2c[nH]cn2)n1 (stereo not shown) [Compound A98, 6-(1H-imidazol-4-yl)-N-(3-(S-methylsulfonimidoyl)-1-phenyl-1H-pyrazol-4-yl)picolinamide]"
19,< 100 nM,"O=C(Nc1cn(-c2ccccc2)nc1C(=O)NC1CC1(F)F)c1cccc(-c2ccn[nH]2)n1 (stereo not shown) [Compound A251, N-(3-((2,2-Difluorocyclopropyl)carbamoyl)-1-phenyl-1H-pyrazol-4-yl)-6-(1H-pyrazol-5-yl)picolinamide]"
